Experimental data as given in patent US12306176B2, “Microfluidic bi-directional migration assay” (Ohio State Innovation Foundation, priority 2017, dated 2025).

Test system: MDA-MB-231 cells
Assay: Microfluidic bi-directional migration (MBDM) assay, mean migration speed and persistence
Format: cell-based, human
Text: To quantify the effects of iEF treatment on directed cell migration speed and persistence, a custom microfluidic bi-directional microtrack (MBDM) assay was developed that enables real-time monitoring with time-lapse microscopy of cell motility.
In this study, the EF sensing mechanisms of breast cancer cells in response to asymmetric iEFs (<100 μV/cm) was investigated. Using a MBDM assay, changes in the speed and persistence of spontaneously migrating MDA-MB-231 breast cancer cells were observed. This cell type was selected for these studies because it is a putative metastatic breast cancer cell line that is also responsive to gradients of a chemoattractant such as EGF (Wang S J, et al. (2004) Exp Cell Res 300 (1):180-189; Wu A, et al. (2013) Proc Natl Acad Sci U S A 110(40):16103-16108). […] This configuration enables direct comparison of cell movement in response to iEFs applied primarily with the direction of cell migration (“parallel”) or against the direction of cell migration (“anti-parallel”) within the same microfluidic device. Here, the field direction is defined as the direction that has the higher peak magnitude, as well as higher time-average field strength.
To calculate persistence, the following protocol was followed for each cell tracked in a microtrack of the MBDM assay. A cell starts at position Pt at time t. After a single time increment, dt, the cell moves to a new position, Pt+dt. The distance traveled during this time is the absolute difference in the two positions denoted as Li: Li=|Pt+dt−Pt|
The total distance traveled is then the sum of all distances traveled during N time increments denoted as Lt. Additionally, the total time of travel is the number of time increments multiplied by the size of the time increments denoted as Tt.
The displacement is simply the difference between the final and initial position: Ld=|PFinal−PInitial|
The MBDM assay was designed to have three ports separated by 700 μm long arrays of parallel microtracks (FIG. 1D). The dimension of each port was 50 mm×15 mm. Cells were seeded in the center port and the top and bottom ports were designated as cell collection port and/or chemokine source reservoir port depending on the experimental condition. Microchannels were designed to have a square cross-section of 20 μm×20 μm. The cross-section dimensions were on the same order as the size of single cells and mimic the dimensions of pre-existing microtracks available to cells in-vivo (Kraning-Rush C M, et al. (2013) lntegr Biol (Camb). 5 (3):606-616). Moreover, these migratory tracks are representative of physiologically relevant matrix metalloproteinase independent cancer-cell migration mode during metastasis (Friedl P & Alexander S (2011) Cell 147 (5):992-1009; Wolf K, et al. (2009) Semin Cell Dev Biol. 20 (8):931-941; Friedl P & Wolf K (2003) Nat Rev Cancer. 3 (5):362; Wolf K, et al. (2007) Nat Cell Biol. 9 (8):893; Wolf K, et al. (2003) J Cell Biol. 160 (2):267-277). The bi-directional design of this assay allows cells to migrate in either direction from the seeding port and provides a better understanding and quantification of the directional bias of external cues such as chemokine gradients and the directional effects of applied iEFs. The large ports for cell seeding ensure uniform seeding density, excellent cell viability, and repeatability.
Cells were washed in culture plates with 1×PBS solution, treated with 0.05% trypsin-EDTA solution (Sigma-Aldrich), and then counted using a hemocytometer. Cells (2×10^5) suspended in migration media were seeded in the middle port (seeding port) with an extremely small flow from the collection ports to the seeding port, which equilibrated in less than 15 minutes. The cells inside the devices were then incubated for 12 hours in migration media following which the media was aspirated and replaced with new media based on the experimental conditions. […]

[1] = MK2206 2.5 μM alone, no EGF, no iEF
[2] = MK2206 2.5 μM alone, under EGF gradient (25 ng/mL)
[3] = MK2206 2.5 μM plus anti-parallel iEFs, under EGF gradient
[4] = MK2206 2.5 μM plus parallel iEFs, under EGF gradient

## NC1(c2ccc(-c3nc4ccn5c(=O)[nH]nc5c4cc3-c3ccccc3)cc2)CCC1 [MK2206]
[1]
  increase of mean migration speed compared to untreated controls: 9%
  reduction of persistence compared to untreated controls: 31%
MK2206 2.5 μM alone, under EGF gradient
  reduction of persistence below EGF-gradient conditions: 9%
[2]
  mean migration speed: 0.36 μm/min
  reduction of mean migration speed compared to EGF-gradient condition: 16%
MK2206 2.5 μM co-applied with anti-parallel iEFs, no EGF
  persistence compared to MK2206 treatment alone: significantly increased
MK2206 2.5 μM co-applied with iEFs, parallel or anti-parallel, no EGF
  average migration speed compared to untreated controls: comparable modest decrease
[3]
  mean migration speed: 0.31 μm/min
  reduction of mean migration speed below EGF controls: 28%
  reduction of persistence from the EGF control: 26%
[4]
  mean migration speed: 0.26 μm/min
  reduction of mean migration speed below EGF controls: 40%
  reduction of persistence from the EGF control: 19%
MK2206 treatment, no exogenous EGF gradient
  directional response of migration speed to iEF: nullified
